According to paper PMC9814900 (Communications Chemistry, 2022):
Numbered stars: 1 amine (or outer) side, 2 acyl side, 3 side chain; on linkers, the order of the positions; unused ones are H or OH. Bridge positions count the residues as written; N and C are the ends. Peptide text beside a SMILES is read from it. C6F4(1,4-diyl) = Fc1c(F)c([*:2])c(F)c(F)c1[*:1]

Biological target: T1, SUMO-25-109MDM2 (Homo sapiens, UniProt Q00987)
T1 construct: the ^25-109MDM2 gene was purchased from Addgene; made in house; host or cells: E. coli Rosetta (DE3) pLysS
Assay: In-solution competition assay by biolayer interferometry (BLI)
Format: binding
Settings: not given

Row | Compound | Kd [nM]
1 | CC(C)C[C@H](NC(=O)[C@@H]1CSc2c(F)c(F)c(c(F)c2F)SC[C@H](NC(=O)[C@H](C)NC(=O)[C@H](Cc2ccccc2)NC(=O)[C@H](CO)NC(=O)[C@@H](N)[C@@H](C)O)C(=O)N[C@@H](Cc2ccc(O)cc2)C(=O)N[C@@H](Cc2c[nH]c3ccccc23)C(=O)N[C@@H](CC(N)=O)C(=O)N1)C(=O)N[C@@H](CO)C(=O)N1CCC[C@H]1C(N)=O [Peptide 13] (H-TSFACYWNCLSP-NH2; linker 5-9 via C6F4(1,4-diyl)) | 36 ± 8.5
2 | CC(C)C[C@H](NC(=O)[C@H](C)NC(=O)[C@H](Cc1c[nH]c2ccccc12)NC(=O)[C@H](Cc1ccc(O)cc1)NC(=O)[C@H](CCC(=O)O)NC(=O)[C@H](C)NC(=O)[C@H](Cc1ccccc1)NC(=O)[C@H](CO)NC(=O)[C@@H](N)[C@@H](C)O)C(=O)N[C@@H](CC(C)C)C(=O)N[C@@H](CO)C(=O)N[C@@H](C)C(N)=O [Peptide 8] (H-TSFAEYWALLSA-NH2) | 0.7 ± 0.5

Same assay, conditions: Figs 3-5; peptide pre-incubated 30 min with ~50 or ~100 nM SUMO-25-109MDM2 in PBS, 0.05% Tween-20, 1 mg/mL BSA; sensor loaded with Biotin-PEG4-p53(15-29); 30 °C; response after 2 min; read-out: KD, competition assay using BLI

Row | Kd [nM] | Compound
3 | 1440 ± 390 | CC(C)C[C@H](NC(=O)[C@H](CC(N)=O)NC(=O)[C@H](Cc1c[nH]c2ccccc12)NC(=O)[C@H](C)NC(=O)[C@H](CCC(=O)O)NC(=O)[C@H](C)NC(=O)[C@H](Cc1ccccc1)NC(=O)[C@H](CO)NC(=O)[C@@H](N)[C@@H](C)O)C(=O)N[C@@H](C)C(=O)N[C@@H](CO)C(=O)N1CCC[C@H]1C(N)=O [Peptide 6] (H-TSFAEAWNLASP-NH2)
4 | 0.7 ± 0.5 | CC(C)C[C@@H]1NC(=O)[C@H](C)NC(=O)[C@@H](NC(=O)[C@H](Cc2c[nH]c3ccccc23)NC(=O)[C@H](Cc2ccc(O)cc2)NC(=O)[C@H](CCC(=O)O)NC(=O)[C@H](C)NC(=O)[C@H](Cc2ccccc2)NC(=O)[C@H](CO)NC(=O)[C@@H](N)[C@@H](C)O)CSc2c(F)c(F)c(c(F)c2F)SC[C@@H](C(N)=O)NC(=O)[C@H](CO)NC1=O [Peptide 40] (H-TSFAEYWCALSC-NH2; linker 8-12 via C6F4(1,4-diyl))
5 | 449 ± 57 | CC(C)C[C@H](NC(=O)[C@H](CC(N)=O)NC(=O)[C@H](Cc1c[nH]c2ccccc12)NC(=O)[C@@H]1CSc2c(F)c(F)c(c(F)c2F)SC[C@H](NC(=O)[C@@H](N)[C@@H](C)O)C(=O)N[C@@H](Cc2ccccc2)C(=O)N[C@@H](C)C(=O)N[C@@H](CCC(=O)O)C(=O)N1)C(=O)N[C@@H](CC(C)C)C(=O)N[C@@H](CO)C(=O)N1CCC[C@H]1C(N)=O [Peptide 10] (H-TCFAECWNLLSP-NH2; linker 2-6 via C6F4(1,4-diyl))
6 | 1620 ± 263 | CC(C)C[C@H](NC(=O)[C@H](CC(N)=O)NC(=O)[C@@H]1CSc2c(F)c(F)c(c(F)c2F)SC[C@H](NC(=O)[C@H](CO)NC(=O)[C@@H](N)[C@@H](C)O)C(=O)N[C@@H](C)C(=O)N[C@@H](CCC(=O)O)C(=O)N[C@@H](Cc2ccc(O)cc2)C(=O)N1)C(=O)N[C@@H](CC(C)C)C(=O)N[C@@H](CO)C(=O)N1CCC[C@H]1C(N)=O [Peptide 11] (H-TSCAEYCNLLSP-NH2; linker 3-7 via C6F4(1,4-diyl))

Same assay, conditions: supplementary binding validation; N=1; ~250 nM SUMO-25-109MDM2; read-out: KD, competition BLI assay

Row | Kd [nM] | Compound
7 | 925 ± 70 | CC(C)C[C@H](NC(=O)[C@H](CC(N)=O)NC(=O)[C@H](Cc1c[nH]c2ccccc12)NC(=O)[C@H](Cc1ccc(O)cc1)NC(=O)[C@@H]1CSc2c(F)c(F)c(c(F)c2F)SC[C@H](N)C(=O)N[C@@H](CO)C(=O)N[C@@H](Cc2ccccc2)C(=O)N[C@@H](C)C(=O)N1)C(=O)N[C@@H](CC(C)C)C(=O)N[C@@H](CO)C(=O)N1CCC[C@H]1C(N)=O [Peptide 9] (H-CSFACYWNLLSP-NH2; linker 1-5 via C6F4(1,4-diyl))

Same assay, conditions: supplementary binding validation; averaged over three measurements; ~30-100 nM SUMO-25-109MDM2 as given per peptide; read-out: Averaged KD, competition BLI assay

Row | Kd [nM] | Compound
8 | 1.6 ± 1.3 | CC(C)C[C@H](NC(=O)[C@@H]1CSc2c(F)c(F)c(c(F)c2F)SC[C@H](NC(=O)[C@H](C)NC(=O)[C@H](Cc2ccccc2)NC(=O)[C@H](CO)NC(=O)[C@@H](N)[C@@H](C)O)C(=O)N[C@@H](Cc2ccc(O)cc2)C(=O)N[C@@H](Cc2c[nH]c3ccccc23)C(=O)N[C@@H](C)C(=O)N1)C(=O)N[C@@H](CO)C(=O)N[C@@H](C)C(N)=O [Peptide 37] (H-TSFACYWACLSA-NH2; linker 5-9 via C6F4(1,4-diyl))
9 | 3 ± 1.3 | CC(C)C[C@@H]1NC(=O)[C@H](CC(C)C)NC(=O)[C@@H](NC(=O)[C@H](Cc2c[nH]c3ccccc23)NC(=O)[C@H](Cc2ccc(O)cc2)NC(=O)[C@H](CCC(=O)O)NC(=O)[C@H](C)NC(=O)[C@H](Cc2ccccc2)NC(=O)[C@H](CO)NC(=O)[C@@H](N)[C@@H](C)O)CSc2c(F)c(F)c(c(F)c2F)SC[C@@H](C(N)=O)NC(=O)[C@H](CO)NC1=O [Peptide 16] (H-TSFAEYWCLLSC-NH2; linker 8-12 via C6F4(1,4-diyl))
10 | 26 ± 5 | CC(C)C[C@H](NC(=O)[C@@H]1CSc2c(F)c(F)c(c(F)c2F)SC[C@H](NC(=O)[C@H](Cc2ccccc2)NC(=O)[C@H](CO)NC(=O)[C@@H](N)[C@@H](C)O)C(=O)N[C@@H](CCC(=O)O)C(=O)N[C@@H](Cc2ccc(O)cc2)C(=O)N[C@@H](Cc2c[nH]c3ccccc23)C(=O)N1)C(=O)N[C@@H](CC(C)C)C(=O)N[C@@H](CO)C(=O)N1CCC[C@H]1C(N)=O [Peptide 12] (H-TSFCEYWCLLSP-NH2; linker 4-8 via C6F4(1,4-diyl))
11 | 2140 ± 390 | CC(C)C[C@H](NC(=O)[C@H](CC(N)=O)NC(=O)[C@H](Cc1c[nH]c2ccccc12)NC(=O)[C@H](C)NC(=O)[C@H](CCC(=O)O)NC(=O)[C@H](C)NC(=O)[C@H](Cc1ccccc1)NC(=O)[C@H](CO)NC(=O)[C@@H](N)[C@@H](C)O)C(=O)N[C@@H](C)C(=O)N[C@@H](CO)C(=O)N1CCC[C@H]1C(N)=O [Peptide 6] (H-TSFAEAWNLASP-NH2)
12 | 316 ± 27 | CC(C)C[C@H](NC(=O)[C@H](C)NC(=O)[C@@H]1CSc2c(F)c(F)c(c(F)c2F)SC[C@H](NC(=O)[C@H](Cc2ccccc2)NC(=O)[C@H](C)NC(=O)[C@H](C)N)C(=O)N[C@@H](CCC(=O)O)C(=O)N[C@@H](Cc2ccc(O)cc2)C(=O)N[C@@H](Cc2c[nH]c3ccccc23)C(=O)N1)C(=O)N[C@@H](CO)C(=O)N1CCC[C@H]1C(N)=O [Peptide 35] (H-AAFCEYWCALSP-NH2; linker 4-8 via C6F4(1,4-diyl))
13 | 0.2 ± 0.1 | CC(C)C[C@@H]1NC(=O)[C@H](C)NC(=O)[C@@H](NC(=O)[C@H](Cc2c[nH]c3ccccc23)NC(=O)[C@H](Cc2ccc(O)cc2)NC(=O)[C@H](CCC(=O)O)NC(=O)[C@H](C)NC(=O)[C@H](Cc2ccccc2)NC(=O)[C@H](CO)NC(=O)[C@@H](N)[C@@H](C)O)CSc2c(F)c(F)c(c(F)c2F)SC[C@@H](C(N)=O)NC(=O)[C@H](CO)NC1=O [Peptide 40] (H-TSFAEYWCALSC-NH2; linker 8-12 via C6F4(1,4-diyl))
14 | 30 ± 3.8 | CC(C)C[C@H](NC(=O)[C@H](C)NC(=O)[C@H](CC(N)=O)NC(=O)[C@H](Cc1c[nH]c2ccccc12)NC(=O)[C@H](Cc1ccc(O)cc1)NC(=O)[C@H](C)NC(=O)[C@H](C)NC(=O)[C@H](Cc1ccccc1)NC(=O)[C@H](CO)NC(=O)[C@@H](N)[C@@H](C)O)C(=O)N[C@@H](CO)C(=O)N1CCC[C@H]1C(N)=O [Peptide 5] (H-TSFAAYWNALSP-NH2)
15 | 10 ± 2.3 | CC(C)C[C@H](NC(=O)[C@H](CC(N)=O)NC(=O)[C@H](Cc1c[nH]c2ccccc12)NC(=O)[C@H](Cc1ccc(O)cc1)NC(=O)[C@H](C)NC(=O)[C@H](C)NC(=O)[C@H](Cc1ccccc1)NC(=O)[C@H](CO)NC(=O)[C@H](C)N)C(=O)N[C@@H](CC(C)C)C(=O)N[C@@H](CO)C(=O)N1CCC[C@H]1C(N)=O [Peptide 1] (H-ASFAAYWNLLSP-NH2)
16 | 1150 ± 209 | CC(C)C[C@@H]1NC(=O)[C@H](CC(N)=O)NC(=O)[C@@H](NC(=O)[C@H](Cc2ccc(O)cc2)NC(=O)[C@H](CCC(=O)O)NC(=O)[C@H](C)NC(=O)[C@H](Cc2ccccc2)NC(=O)[C@H](CO)NC(=O)[C@@H](N)[C@@H](C)O)CSc2c(F)c(F)c(c(F)c2F)SC[C@@H](C(=O)N2CCC[C@H]2C(N)=O)NC(=O)[C@H](CC(C)C)NC1=O [Peptide 15] (H-TSFAEYCNLLCP-NH2; linker 7-11 via C6F4(1,4-diyl))
17 | 431 ± 46 | CC(C)C[C@H](NC(=O)[C@H](CC(N)=O)NC(=O)[C@H](Cc1c[nH]c2ccccc12)NC(=O)[C@@H]1CSc2c(F)c(F)c(c(F)c2F)SC[C@H](NC(=O)[C@@H](N)[C@@H](C)O)C(=O)N[C@@H](Cc2ccccc2)C(=O)N[C@@H](C)C(=O)N[C@@H](CCC(=O)O)C(=O)N1)C(=O)N[C@@H](CC(C)C)C(=O)N[C@@H](CO)C(=O)N1CCC[C@H]1C(N)=O [Peptide 10] (H-TCFAECWNLLSP-NH2; linker 2-6 via C6F4(1,4-diyl))
18 | 2020 ± 514 | CC(C)C[C@@H]1NC(=O)[C@H](CC(N)=O)NC(=O)[C@H](Cc2c[nH]c3ccccc23)NC(=O)[C@@H](NC(=O)[C@H](CCC(=O)O)NC(=O)[C@H](C)NC(=O)[C@H](Cc2ccccc2)NC(=O)[C@H](CO)NC(=O)[C@@H](N)[C@@H](C)O)CSc2c(F)c(F)c(c(F)c2F)SC[C@@H](C(=O)N[C@@H](CO)C(=O)N2CCC[C@H]2C(N)=O)NC1=O [Peptide 14] (H-TSFAECWNLCSP-NH2; linker 6-10 via C6F4(1,4-diyl))
19 | 1590 ± 315 | CC(C)C[C@H](NC(=O)[C@H](CC(N)=O)NC(=O)[C@@H]1CSc2c(F)c(F)c(c(F)c2F)SC[C@H](NC(=O)[C@H](CO)NC(=O)[C@@H](N)[C@@H](C)O)C(=O)N[C@@H](C)C(=O)N[C@@H](CCC(=O)O)C(=O)N[C@@H](Cc2ccc(O)cc2)C(=O)N1)C(=O)N[C@@H](CC(C)C)C(=O)N[C@@H](CO)C(=O)N1CCC[C@H]1C(N)=O [Peptide 11] (H-TSCAEYCNLLSP-NH2; linker 3-7 via C6F4(1,4-diyl))
20 | 4910 ± 713 | CC(C)C[C@H](NC(=O)[C@H](CC(N)=O)NC(=O)[C@H](C)NC(=O)[C@H](Cc1ccc(O)cc1)NC(=O)[C@H](CCC(=O)O)NC(=O)[C@H](C)NC(=O)[C@H](C)NC(=O)[C@H](CO)NC(=O)[C@@H](N)[C@@H](C)O)C(=O)N[C@@H](CC(C)C)C(=O)N[C@@H](CO)C(=O)N1CCC[C@H]1C(N)=O [Peptide 3] (H-TSAAEYANLLSP-NH2)
21 | 1220 ± 231 | CC(C)C[C@H](NC(=O)[C@H](CC(C)C)NC(=O)[C@H](CC(N)=O)NC(=O)[C@H](C)NC(=O)[C@H](Cc1ccc(O)cc1)NC(=O)[C@H](CCC(=O)O)NC(=O)[C@H](C)NC(=O)[C@H](Cc1ccccc1)NC(=O)[C@H](CO)NC(=O)[C@@H](N)[C@@H](C)O)C(=O)N[C@@H](C)C(=O)N1CCC[C@H]1C(N)=O [Peptide 7] (H-TSFAEYANLLAP-NH2)
22 | 628 ± 89 | CC(C)C[C@H](NC(=O)[C@H](CC(N)=O)NC(=O)[C@H](Cc1c[nH]c2ccccc12)NC(=O)[C@H](C)NC(=O)[C@H](CCC(=O)O)NC(=O)[C@H](C)NC(=O)[C@H](Cc1ccccc1)NC(=O)[C@H](C)NC(=O)[C@@H](N)[C@@H](C)O)C(=O)N[C@@H](CC(C)C)C(=O)N[C@@H](CO)C(=O)N1CCC[C@H]1C(N)=O [Peptide 2] (H-TAFAEAWNLLSP-NH2)

Biological target: MDM2
Assay: not given
Settings: KD of single alanine mutant relative to PMI; ref 3 of supplement (Li et al., J. Mol. Biol. 2010); cited from earlier work

Row | Compound | KD ratio
23 | ASFAEYWNLLSP [Peptide T1A] | 1.9
24 | TSFAAYWNLLSP [Peptide E5A] | 6.7
25 | TSFAEYANLLSP [Peptide W7A] | 50720
26 | TSAAEYWNLLSP [Peptide F3A] | 11750
27 | TSFAEYWNALSP [Peptide L9A] | 0.8
28 | TSFAEAWNLLSP [Peptide Y6A] | 191
29 | TSFAEYWNLLSA [Peptide P12A] | 0.7
30 | TSFAEYWNLASP [Peptide L10A] | 227
31 | TAFAEYWNLLSP [Peptide S2A] | 8.4
32 | TSFAEYWNLLAP [Peptide S11A] | 1.2
